Source: patent US11214594B2, “Antimicrobial peptide having synergistic antibacterial effect with antibiotics on multidrug resistant bacteria, and use thereof” (priority 2016, dated 2022)
Several values for one entry are separate records, joined by “and”; a condition that tells them apart may be missing. Equal entries are not always repeated. Where two headings read alike, the source gives them in different places. Where a SMILES comes first, the peptide text is derived from it.

Assays:
A. baumannii [1] = test: MIC of antibiotic during combined treatment with antimicrobial peptide; type: cell-based, Acinetobacter baumannii; details: A. baumannii; combined with peptide at 64 μg/ml
Experimental: Thereafter, the MIC value of each mixed solution was determined by diluting the antibiotic solution with the MH medium, adding 50 μl of the diluted solution to each well, and performing an experiment even under a reversed condition.

E. coli = type: cell-based, Escherichia coli; details: E. coli
Experimental: (§1) Specifically, the strains described in [Table 2] were prepared and diluted with an MH medium such that the number of bacteria was 2×10^6 colony-forming units (CFUs) per 1 ml, 100 μl of the diluted strains was each aliquoted into a 96-well microtiter plate, and then 50 μl of a peptide solution diluted with the MH medium from the MIC value (solution diluted stepwise at 2: 1) was added to each well. Thereafter, the MIC value of each mixed solution was determined by diluting the antibiotic solution with the MH medium, adding 50 μl of the diluted solution to each well, and performing an experiment even under a reversed condition.

MDREC 1229 = type: cell-based, Escherichia coli
Experimental: as §1

A. baumannii [2] = test: MIC of antimicrobial peptide during combined treatment with antibiotic; type: cell-based, Acinetobacter baumannii
Procedure, shortened: (§2)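 Broth microdilution in MH medium; strains were diluted to 2×10^6 CFU per ml before plating. Peptide was serially diluted stepwise at 2:1 starting from its MIC, and MH-diluted antibiotic was then added to determine MIC. The reversed arrangement was also tested.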

MDRAB 12035 = test: as above; type: cell-based, Acinetobacter baumannii
Procedure, shortened: as §2

[3] = with Erythromycin […] (Conc./MIC 1)
[4] = linezolid 64 μg/ml (Conc./MIC 1/8)
[5] = linezolid 512 μg/ml (Conc./MIC 1)
[6] = vancomycin 512 μg/ml (Conc./MIC 1/2)
[7] = vancomycin 1024 μg/ml (Conc./MIC 1)
[8] = erythromycin 4 μg/ml (Conc./MIC 1/8)
[9] = erythromycin 8 μg/ml (Conc./MIC 1/4)
[10] = erythromycin 16 μg/ml (Conc./MIC 1/2)
[11] = erythromycin 32 μg/ml (Conc./MIC 1)
[12] = linezolid 32 μg/ml (Conc./MIC 1/8)
[13] = linezolid 64 μg/ml (Conc./MIC 1/4)

SMILES: CC[C@H](C)[C@H](NC(=O)[C@H](CCCCN)NC(=O)[C@H](Cc1c[nH]c2ccccc12)NC(=O)[C@@H](N)CCCNC(=N)N)C(=O)N[C@@H](Cc1ccccc1)C(=O)N[C@@H](CCCCN)C(=O)N[C@@H](CCCCN)C(=O)N[C@H](C(=O)N1CCC[C@H]1C(=O)N[C@@H](CCCCN)C(=O)N[C@@H](Cc1ccccc1)C(=O)N[C@@H](CC(C)C)C(=O)N[C@@H](Cc1c[nH]cn1)C(=O)N[C@@H](CO)C(=O)N[C@@H](C)C(=O)N[C@@H](CCCCN)C(=O)N[C@@H](CCCCN)C(=O)N[C@@H](Cc1ccccc1)C(N)=O)[C@@H](C)CC [PapMA-1, RWK IFK KIP KFL HSA KKF-NH2] (H-RWKIFKKIPKFLHSAKKF-NH2; N-terminus assumed)
- Antibiotic MIC, Erythromycin (A. baumannii [1]): 0 µg/mL
- Antibiotic MIC, Linezolid (A. baumannii [1]): 0 µg/mL
- Antibiotic MIC, Vancomycin (A. baumannii [1]): 0 µg/mL
- Peptide MIC (E. coli; [3]): 0 µg/mL
- Peptide MIC (E. coli; with Linezolid […] (Conc./MIC 1)): 0 µg/mL
- Peptide MIC (E. coli; with Vancomycin 1024 μg/ml (Conc./MIC 1)): 0 µg/mL
- Peptide MIC during treatment with antibiotic (MDREC 1229; erythromycin 32 μg/ml (Conc./MIC 1/8)): 2 µg/mL
- Peptide MIC during treatment with antibiotic (MDREC 1229; erythromycin 64 μg/ml (Conc./MIC 1/4)): 1 µg/mL and 2 µg/mL
- Peptide MIC during treatment with antibiotic (MDREC 1229; erythromycin […] (Conc./MIC 1)): 0 µg/mL
- Peptide MIC during treatment with antibiotic (MDREC 1229; erythromycin […] (Conc./MIC 1/2)): 1 µg/mL
- Peptide MIC during treatment with antibiotic (MDREC 1229; [4]): 2 µg/mL and 4 µg/mL
- Peptide MIC during treatment with antibiotic (MDREC 1229; [5]): 0 µg/mL
- Peptide MIC during treatment with antibiotic (MDREC 1229; linezolid […] (Conc./MIC 1/2)): 1 µg/mL
- Peptide MIC during treatment with antibiotic (MDREC 1229; linezolid […] (Conc./MIC 1/4)): 2 µg/mL
- Peptide MIC during treatment with antibiotic (MDREC 1229; [6]): 2 µg/mL
- Peptide MIC during treatment with antibiotic (MDREC 1229; [7]): 1 µg/mL
- Peptide MIC during treatment with antibiotic (MDREC 1229; vancomycin […] (Conc./MIC 1/4)): 4 µg/mL
- Peptide MIC during treatment with antibiotic (MDREC 1229; vancomycin […] (Conc./MIC 1/8)): 8 µg/mL
- Peptide MIC (MDREC 1229; [3]): 0 µg/mL
- Peptide MIC (MDREC 1229; with Linezolid 512 μg/ml (Conc./MIC 1)): 0 µg/mL
- Peptide MIC during treatment with antibiotic (A. baumannii [2]; [8]): 4 µg/mL
- Peptide MIC during treatment with erythromycin (A. baumannii [2]; [8]): 4 µg/mL
- Peptide MIC during treatment with antibiotic (A. baumannii [2]; [9]): 4 µg/mL
- Peptide MIC during treatment with erythromycin (A. baumannii [2]; [9]): 4 µg/mL
- Peptide MIC during treatment with antibiotic (A. baumannii [2]; [10]): 2 µg/mL
- Peptide MIC during treatment with erythromycin (A. baumannii [2]; [10]): 2 µg/mL
- Peptide MIC during treatment with antibiotic (A. baumannii [2]; [11]): 0 µg/mL
- Peptide MIC during treatment with erythromycin (A. baumannii [2]; [11]): 0 µg/mL
- Peptide MIC during treatment with antibiotic (A. baumannii [2]; [12]): 4 µg/mL
- Peptide MIC during treatment with linezolid (A. baumannii [2]; [12]): 4 µg/mL
- Peptide MIC during treatment with antibiotic (A. baumannii [2]; [13]): 4 µg/mL
- Peptide MIC during treatment with linezolid (A. baumannii [2]; [13]): 4 µg/mL
- Peptide MIC during treatment with antibiotic (A. baumannii [2]; linezolid […] (Conc./MIC 1)): 0 µg/mL
- Peptide MIC during treatment with linezolid (A. baumannii [2]; linezolid […] (Conc./MIC 1)): 0 µg/mL
- Peptide MIC during treatment with antibiotic (A. baumannii [2]; linezolid […] (Conc./MIC 1/2)): 0.5 µg/mL
- Peptide MIC during treatment with linezolid (A. baumannii [2]; linezolid […] (Conc./MIC 1/2)): 0.5 µg/mL
- Peptide MIC during treatment with antibiotic (A. baumannii [2]; [6]): 0.25 µg/mL
- Peptide MIC during treatment with vancomycin (A. baumannii [2]; [6]): 0.25 µg/mL
- Peptide MIC during treatment with antibiotic (A. baumannii [2]; [7]): 0 µg/mL
- Peptide MIC during treatment with vancomycin (A. baumannii [2]; [7]): 0 µg/mL
- Peptide MIC during treatment with antibiotic (A. baumannii [2]; vancomycin […] (Conc./MIC 1/4)): 0.5 µg/mL
- Peptide MIC during treatment with vancomycin (A. baumannii [2]; vancomycin […] (Conc./MIC 1/4)): 0.5 µg/mL
- Peptide MIC during treatment with antibiotic (A. baumannii [2]; vancomycin […] (Conc./MIC 1/8)): 4 µg/mL
- Peptide MIC during treatment with vancomycin (A. baumannii [2]; vancomycin […] (Conc./MIC 1/8)): 4 µg/mL
- Peptide MIC during treatment with erythromycin (MDRAB 12035; [8]): 4 µg/mL
- MIC of peptide in combination as fraction of the MIC of the peptide alone (MDRAB 12035; erythromycin 8 μg/ml): 1/16
- MIC value of peptide during combined treatment with erythromycin (MDRAB 12035; erythromycin 8 μg/ml (1/4 of its MIC)): 4 µg/mL
- Peptide MIC during treatment with erythromycin (MDRAB 12035; [9]): 4 µg/mL
- Peptide MIC during treatment with erythromycin (MDRAB 12035; [10]): 4 µg/mL
- Peptide MIC during treatment with erythromycin (MDRAB 12035; [11]): 0 µg/mL
- Peptide MIC during treatment with linezolid (MDRAB 12035; [4]): 4 µg/mL
- Peptide MIC during treatment with linezolid (MDRAB 12035; [5]): 0 µg/mL
- Peptide MIC during treatment with linezolid (MDRAB 12035; linezolid […] (Conc./MIC 1/2)): 1 µg/mL
- Peptide MIC during treatment with linezolid (MDRAB 12035; linezolid […] (Conc./MIC 1/4)): 4 µg/mL
- Peptide MIC during treatment with vancomycin (MDRAB 12035; [6]): 2 µg/mL
- Peptide MIC during treatment with vancomycin (MDRAB 12035; [7]): 1 µg/mL
- Peptide MIC during treatment with vancomycin (MDRAB 12035; vancomycin […] (Conc./MIC 1/4)): 4 µg/mL
- Peptide MIC during treatment with vancomycin (MDRAB 12035; vancomycin […] (Conc./MIC 1/8)): 4 µg/mL
